Values after ≈ are worked out from the molar mass of the structure shown. Like-named read-outs stand apart in the source and are kept apart here. Positions of bridges follow the written chain, without caps; N, C: chain ends. Non-standard residues stand in square brackets, D forms with d. Residues, ends and D or L forms follow the SMILES beside them. No end group written: not given here. *: point of attachment. X1 = CC[C@H](C)CCCCC(=O)*; Dab = NCC[C@H](N)C(=O)O
Key:
PAO1 = assay: microbe, parasite or virus in culture; assay type: cell-based, Pseudomonas aeruginosa
From the text: Supplement DataSheet_1.docx, table 1: Table S1 Minimum inhibitory concentrations of various drugs against PAO1 | column: MIC(μg/mL)

PAO1 preformed biofilms = assay: Effect of exogenous glutamate and succinate on PAO1 preformed biofilm biomass; details: preformed 96-h-old biofilms, different concentrations, 37°C, 24 h; certain dose-dependent effect (one way ANOVA)
surface-attached biofilm = details: exogenous addition of succinate and glutamate; ref Sauer et al., 2004; cited from earlier work
[1] = system: PAO1 planktonic and dispersed bacteria; assay: Inducible resistance, multi-step induction over 25 generations; assay type: cell-based, Pseudomonas aeruginosa; details: for increase in the MIC value after induction: 25 continuous generations, induction with the agent alone at 1/4 MIC, consistent across planktonic and dispersed bacteria; for MIC values after co-induction with CRAMP-34: antibiotic at 1/4 MIC combined with CRAMP-34 at 1/4 MIC, 25 generations, vs antibiotic alone, planktonic and dispersed bacteria
Description: Bacterial resistance was induced in vitro using a modified multi-step method ([Zhu et al., 2017]). The method of obtaining dispersed bacteria was described previously ([Zhang et al., 2022]). Planktonic bacteria and biofilm dispersion bacteria were induced at the initial 1/4 MIC concentration of antimicrobial agents every 24 hours. The latest MIC was measured every 2 generations and the drug concentration was changed according to the latest results.

[2] = Pseudomonas aeruginosa, read-out: MIC

Molecule: GLLRKGGEKIGEKLKKIGQKIKNFFQKLVPQPEQ [CRAMP-34]
- MIC (PAO1): 31.25 µg/mL

Molecule: O=C(O)CCC(=O)O [succinate]
- effect of exogenous addition on pre-biofilms (biomass) (PAO1 preformed biofilms): significant effects on eradicating pre-biofilms
- reduction in surface-attached biofilm biomass (surface-attached biofilm): ~80%

Molecule: NCC[C@H](O)C(=O)N[C@@H]1C[C@H](N)[C@@H](O[C@H]2O[C@H](CN)[C@@H](O)[C@H](O)[C@H]2O)[C@H](O)[C@H]1O[C@H]1O[C@H](CO)[C@@H](O)[C@H](N)[C@H]1O [Amikacin]
- MIC (PAO1; [2]): 0.25 µg/mL (≈ 0.427 µM)

Molecule: CC[C@H](C)CCCCC(=O)N[C@@H](CCN)C(=O)N[C@H](C(=O)N[C@@H](CCN)C(=O)N[C@H]1CCNC(=O)[C@H]([C@@H](C)O)NC(=O)[C@H](CCN)NC(=O)[C@H](CCN)NC(=O)[C@H](CC(C)C)NC(=O)[C@@H](CC(C)C)NC(=O)[C@H](CCN)NC1=O)[C@@H](C)O [Colistin] (X1-[Dab]T[Dab][Dab][Dab][dL]L[Dab][Dab]T; lactam 4-C (inferred); N-terminus assumed)
- increase in the MIC value after induction [1]: thirty-twofold
- MIC values after co-induction with CRAMP-34 [1]: significantly reduced
- MIC (PAO1): 0.25 µg/mL (≈ 0.214 µM)

Molecule: N[C@@H](CCC(=O)O)C(=O)O [glutamate]
- effect of exogenous addition on pre-biofilms (biomass) (PAO1 preformed biofilms): significant effects on eradicating pre-biofilms
- reduction in surface-attached biofilm biomass (surface-attached biofilm): ~80%

Molecule: CN[C@H](CC(C)C)C(=O)N[C@H]1C(=O)N[C@@H](CC(N)=O)C(=O)N[C@H]2C(=O)N[C@H]3C(=O)N[C@H](C(=O)N[C@H](C(=O)O)c4cc(O)cc(O)c4-c4cc3ccc4O)[C@H](O)c3ccc(c(Cl)c3)Oc3cc2cc(c3O[C@@H]2O[C@H](CO)[C@@H](O)[C@H](O)[C@H]2O[C@H]2C[C@](C)(N)[C@H](O)[C@H](C)O2)Oc2ccc(cc2Cl)[C@H]1O [Vancomycin]
- MIC (PAO1; Pseudomonas aeruginosa): 1020 µg/mL (≈ 707 µM)

Molecule: CC[C@H]1OC(=O)[C@H](C)[C@@H](O[C@H]2C[C@@](C)(OC)[C@@H](O)[C@H](C)O2)[C@H](C)[C@@H](O[C@@H]2O[C@H](C)C[C@H](N(C)C)[C@H]2O)[C@](C)(O)C[C@@H](C)/C(=N\OCOCCOC)[C@H](C)[C@@H](O)[C@]1(C)O [Roxithromycin]
- MIC (PAO1; [2]): 512 µg/mL (≈ 612 µM)

Molecule: C[C@@H](O)[C@H]1C(=O)N2C(C(=O)O)=C(SCCN=CN)C[C@H]12 [Imipenem]
- MIC (PAO1; [2]): 2 µg/mL (≈ 6.68 µM)

Molecule: CO/N=C(\C(=O)N[C@@H]1C(=O)N2C(C(=O)[O-])=C(C[n+]3cccc4c3CCCC4)CS[C@H]12)c1csc(N)n1.O=S(=O)(O)O [Cefoquinol]
- MIC (PAO1): 2 µg/mL

Molecule: CCN1CCN(c2cc3c(cc2F)c(=O)c(C(=O)O)cn3C2CC2)CC1 [Enrofloxacin]
- MIC (PAO1; [2]): 0.5 µg/mL (≈ 1.39 µM)

Molecule: CC(C)(O/N=C(\C(=O)N[C@@H]1C(=O)N2C(C(=O)[O-])=C(C[n+]3ccccc3)CS[C@H]12)c1csc(N)n1)C(=O)O [Ceftazidime]
- MIC (PAO1; [2]): 1 µg/mL (≈ 1.83 µM)

Molecule: C[C@@H](O)[C@H]1C(=O)N2C(C(=O)O)=C(S[C@@H]3CN[C@H](C(=O)N(C)C)C3)[C@H](C)[C@H]12 [Meropenem]
- MIC (PAO1; [2]): 0.5 µg/mL (≈ 1.3 µM)

Molecule: CC[C@H]1OC(=O)[C@H](C)[C@@H](O[C@H]2C[C@@](C)(OC)[C@@H](O)[C@H](C)O2)[C@H](C)[C@@H](O[C@@H]2O[C@H](C)C[C@H](N(C)C)[C@H]2O)[C@](C)(O)C[C@@H](C)CN(C)[C@H](C)[C@@H](O)[C@]1(C)O [Azithromycin]
- MIC (PAO1; [2]): 16 µg/mL (≈ 21.4 µM)

Molecule: CNC(C)C1CCC(N)C(OC2C(N)CC(N)C(OC3OCC(C)(O)C(NC)C3O)C2O)O1 (centres unmarked) [Gentamicin]
- MIC (PAO1; [2]): 0.5 µg/mL (≈ 1.05 µM)

Molecule: O=C(O)c1cn(C2CC2)c2cc(N3CCNCC3)c(F)cc2c1=O [Ciprofloxacin]
- increase in the MIC value after induction [1]: sixty-fourfold
- MIC values after co-induction with CRAMP-34 [1]: significantly reduced
- MIC (PAO1; [2]): 0.031 µg/mL (≈ 0.0936 µM)

Molecule: CCN1CCN(C(=O)N[C@@H](C(=O)N[C@@H]2C(=O)N3C(C(=O)O)=C(CSc4nnnn4C)CS[C@H]23)c2ccc(O)cc2)C(=O)C1=O [Cefoperazone]
- MIC (PAO1; [2]): 4 µg/mL (≈ 6.2 µM)

Molecule: CCN1CCN(C(=O)N[C@@H](C(=O)N[C@@H]2C(=O)N3[C@@H]2SC(C)(C)[C@@H]3C(=O)O)c2ccccc2)C(=O)C1=O [Piperacillin]
- MIC (PAO1; [2]): 2 µg/mL (≈ 3.86 µM)

From article PMC10757720, “Impact of CRAMP-34 on Pseudomonas aeruginosa biofilms and extracellular metabolites” (Frontiers in Cellular and Infection Microbiology, 2023)
